Reference: patent US10899747B2, “Biaryl piperidine amide compounds and methods of use thereof” (Athenex, Inc., priority 2017, dated 2021)

system: IL-2; experiment: PHA-IL2 (cell activation and cytokine analysis); type: cell-based; settings: 50% inhibition concentration class
Description: Cells to be tested may include, but are not limited to, a) Jurkat (a transformed human T cell leukemia), b) whole blood isolated from human or rodent sources, c) peripheral blood mononuclear cells (PBMC) freshly isolated from human or rodent whole blood, or d) purified fractions of PBMC (e.g., CD4 T cells). Cells are plated in 96-well plates at a final density of 1.0-2.0×10^6 cells/ml in 150 ul of assay medium (RPMI+0.5% fetal calf serum). Test compounds are included at a final concentration of ≤20 uM and generally pre-incubated with cells for 30 minutes prior to stimulation. An appropriate stimulus is added, including but not limited to, a) phytohemagglutinin (PHA), b) phorbol myristate acetate (PMA) and ionomycin, or c) stimulatory antibodies to the T cell receptor (TCR) complex (e.g., anti-CD3ε) and CD28. Cell cultures are stimulated for 24-48 hours in a humidified incubator (37 degrees C./5% CO2). A fraction of the culture supernatant is than harvested from each well and assayed for the presence of appropriate cytokine using standard ELISA. Cytokines to be analyzed may include IL-2, IL-4, IL-10, IL-17, IL-22, IFNγ, and/or TNFα. If required, the number of cytokine producing cells can be determined using intracellular staining and flow cytometry. […]

Row | SMILES | IC50 [µM]
1 | O=C(COc1ncccc1-c1ccc(F)cc1O)N1CCC(CCc2ccc3c(c2)OCO3)CC1 [Compound 329] | 10 to 50
2 | N#Cc1ccc(-c2ncccc2OCC(=O)N2CCC(CCc3ccc4c(c3)OCCCO4)CC2)cn1 [Compound 342] | 10 to 50
3 | CC(Oc1ccccc1-c1ccccc1)C(=O)N1CCC(CCc2ccc3c(c2)OCO3)CC1 (centres unmarked) [Compound 153] | 10 to 50
4 | O=C(C[S+]([O-])c1ccccc1-c1ccccc1)N1CCC(CCc2ccccc2)CC1 (centres unmarked) [Compound 312] | 10 to 50
5 | CN(C)c1ccc(-c2ccccc2OCC(=O)N2CCC(CCc3ccc4c(c3)OCO4)CC2)cc1 [Compound 213] | 10 to 50
6 | N#Cc1ccc(OCC(=O)N2CCC(CCc3ccccc3)CC2)c(-c2ccc3[nH]cnc3c2)c1 [Compound 372] | 1 to 10
7 | O=C(COc1ccccc1-c1ccc2c(c1)OCCO2)N1CCC(CCc2ccc3c(c2)OCO3)CC1 [Compound 173] | 1 to 10
8 | N#Cc1ccc(-c2ccccc2CCC(=O)N2CCC(CCc3ccc4c(c3)OCO4)CC2)cc1 [Compound 225] | 1 to 10
9 | O=C(COc1ccccc1-c1ccccc1OC(F)(F)F)N1CCC(CCc2ccc3c(c2)OCO3)CC1 [Compound 184] | 10 to 50
10 | CCc1ccc(OCC(=O)N2CCC(CCc3ccc4c(c3)OCO4)CC2)c(-c2ccc(Cl)nc2)c1 [Compound 275] | 1 to 10
11 | O=C(COc1ccccc1-c1ccc(F)cc1O)N1CCC(CCc2ccc(OCCN3CCOCC3)cc2)CC1 [Compound 349] | 1 to 10
12 | N#Cc1ccc(-c2ncccc2OCC(=O)N2CCC(CCc3ccc4c(c3)OCCO4)CC2)cn1 [Compound 335] | 1 to 10
13 | Nc1ccc(/C=C/C2CCN(C(=O)COc3ccccc3-c3ccccc3)CC2)cn1 [Compound 252] | 10 to 50
14 | CN(C)CCNC(=O)c1ccc(OCC(=O)N2CCC(CCc3ccccc3)CC2)c(-c2ccc(C#N)cc2)c1 [Compound 325] | 1 to 10
15 | O=C1COc2ccc(CCC3CCN(C(=O)COc4ccccc4-c4ccccc4)CC3)cc2N1 [Compound 254] | 1 to 10
16 | COc1cccc(CCC2CCN(C(=O)COc3ccc(S(=O)(=O)NC(C)C)cc3-c3ccc(F)cc3O)CC2)c1 [Compound 389] | 1 to 10
17 | COc1ccc(CCC2CCN(C(=O)C(C)Oc3c(C)cccc3-c3ccccc3)CC2)cc1 (centres unmarked) [Compound 234] | 1 to 10
18 | N#Cc1ccc(-c2cc(C(=O)O)ccc2OCC(=O)N2CCC(CCc3ccccc3)CC2)cc1 [Compound 315] | 1 to 10
19 | Nc1ccc(-c2ccccc2OCC(=O)N2CCC(CCc3ccc4c(c3)OCO4)CC2)cc1 [Compound 195] | 10 to 50

Row | SMILES | IC50 [µM]
20 | CCCC(Oc1ccccc1-c1ccccc1)C(=O)N1CCC(CCc2ccc3c(c2)OCO3)CC1 (centres unmarked) [Compound 154] | 10 to 50
21 | COc1c(F)cc(F)cc1-c1ccccc1OCC(=O)N1CCC(CCc2ccc3c(c2)OCO3)CC1 [Compound 242] | 1 to 10
22 | Cn1ncc2cc(-c3ncccc3OCC(=O)N3CCC(CCc4cccc(OCCN5CCOCC5)c4)CC3)ccc21 [Compound 374] | 10 to 50
23 | N#Cc1ccc(-c2cc(C(=O)N3CCOCC3)ccc2OCC(=O)N2CCC(CCc3ccccc3)CC2)cc1 [Compound 318] | 1 to 10
24 | CCc1ccc(-c2ccccc2OCC(=O)N2CCC(CCc3ccc4c(c3)OCO4)CC2)cc1 [Compound 156] | 1 to 10
25 | CCCOc1cccc(-c2ccccc2OCC(=O)N2CCC(CCc3ccc4c(c3)OCO4)CC2)c1 [Compound 244] | 1 to 10
26 | O=C(COc1cccnc1-c1ccc(F)nc1)N1CCC(CCc2ccc3c(c2)OCO3)CC1 [Compound 340] | 1 to 10
27 | O=C(CCc1ccccc1-c1ccccc1)N1CCC(CCc2ccc3c(c2)OCO3)CC1 [Compound 219] | 10 to 50
28 | O=C(COc1cccnc1-c1ccc(F)cc1O)N1CCC(CCc2ccc3c(c2)OCO3)CC1 [Compound 326] | 1 to 10
29 | O=C1COc2ccc(CCC3CCN(C(=O)COc4ccccc4-c4ccc(F)cc4)CC3)cc2N1 [Compound 258] | 1 to 10
30 | CCN(CC)C(=O)c1ccc(-c2ccccc2OCC(=O)N2CCC(CCc3ccc4c(c3)OCO4)CC2)cc1 [Compound 168] | 1 to 10
31 | N#Cc1ccc(-c2cc(C#N)ccc2OCC(=O)N2CCC(C#Cc3cnccn3)CC2)cc1 [Compound 429] | 1 to 10
32 | Cc1cc(F)ncc1-c1ncccc1OCC(=O)N1CCC(CCc2ccccc2)CC1 [Compound 333] | 10 to 50
33 | NS(=O)(=O)c1ccc(-c2ccccc2OCC(=O)N2CCC(CCc3ccc4c(c3)OCO4)CC2)cc1 [Compound 181] | 10 to 50
34 | N#Cc1ccc(-c2ncccc2OCC(=O)N2CCC(CCc3ccccc3)CC2)cn1 [Compound 334] | 1 to 10
35 | CC(C)NC(=O)c1ccc(OCC(=O)N2CCC(CCc3ccccc3)CC2)c(-c2ccc(F)cc2O)c1 [Compound 319] | 10 to 50
36 | O=C(COc1ccccc1-c1ccc(F)cc1)N1CCC(CCc2ccc3c(c2)OCO3)CC1 [Compound 164] | 1 to 10
37 | N#Cc1cccc(-c2ccccc2OCC(=O)N2CCC(CCc3ccc4c(c3)OCO4)CC2)c1 [Compound 192] | 1 to 10

Further lines, results first:

Row | IC50 [µM] | SMILES
38 | 1 to 10 | COc1ccc(CCC2CCN(C(=O)COc3ccccc3-c3ccc(F)cc3O)CC2)cc1OCCN1CCOCC1 [Compound 391]
39 | 1 to 10 | O=C(COc1ccccc1-c1cccc(OCc2ccccc2)c1)N1CCC(CCc2ccc3c(c2)OCO3)CC1 [Compound 217]
40 | < 1 | O=C(COc1ccccc1-c1ccc(Cl)nc1)N1CCC(CCc2ccc(O)cc2)CC1 [Compound 283]
41 | 1 to 10 | O=C(COc1ccccc1-c1ccccc1)N1CCC(CCc2ccc3c(c2)OC(F)(F)O3)CC1 [Compound 211]
42 | 1 to 10 | N#Cc1ccc(-c2cc(C(N)=O)ccc2OCC(=O)N2CCC(CCc3ccccc3)CC2)cc1 [Compound 321]
43 | < 1 | N#Cc1ccc(-c2cc(C(=O)NCc3ccccc3)ccc2OCC(=O)N2CCC(CCc3ccccc3)CC2)cc1 [Compound 366]
44 | 1 to 10 | O=C(COc1ccccc1-c1ccc2[nH]cnc2c1)N1CCC(CCc2ccc3c(c2)OCO3)CC1 [Compound 382]
45 | 1 to 10 | COc1cccc(-c2ccccc2OCC(=O)N2CCC(CCc3ccc4c(c3)OCO4)CC2)c1 [Compound 163]
46 | 1 to 10 | O=C(COc1ccccc1-c1cccnc1)N1CCC(CCc2ccc3c(c2)OCO3)CC1 [Compound 194]
47 | 1 to 10 | COc1ncccc1-c1ccccc1OCC(=O)N1CCC(CCc2ccc3c(c2)OCO3)CC1 [Compound 191]
48 | < 1 | O=C(COc1ccccc1-c1ccc2[nH]ncc2c1)N1CCC(CCc2ccccc2)CC1 [Compound 272]
49 | < 1 | CC(C)Oc1ccccc1CCC1CCN(C(=O)COc2ccccc2-c2ccc(C#N)cc2)CC1 [Compound 427]
50 | 1 to 10 | Cc1ccc(-c2ccccc2OCC(=O)N2CCC(CCc3ccc4c(c3)OCO4)CC2)cc1 [Compound 202]
51 | 1 to 10 | O=C(COc1cccnc1-c1ccc(F)nc1)N1CCC(CCc2ccc3c(c2)OCCO3)CC1 [Compound 341]
52 | 1 to 10 | O=C(c1ccccc1)c1ccc(-c2ccccc2OCC(=O)N2CCC(CCc3cc(Br)c(O)c(Br)c3)CC2)cc1 [Compound 332]
53 | < 1 | CCCC(Oc1ccccc1-c1ccccc1)C(=O)N1CCC(CCc2ccc3c(c2)OCCCO3)CC1 (centres unmarked) [Compound 210]
54 | < 1 | Cc1ccc(F)cc1CCC1CCN(C(=O)COc2ccccc2-c2ccc(F)cc2O)CC1 [Compound 306]

Row | IC50 [µM] | SMILES
55 | < 1 | N#Cc1ccc(-c2ccccc2OCC(=O)N2CCC(CCc3cccc4c3OCO4)CC2)cc1 [Compound 299]
56 | < 1 | O=C(COc1ccccc1-c1ccc2[nH]ncc2c1)N1CCC(CCc2ccc3c(c2)OCCCO3)CC1 [Compound 267]
57 | < 1 | O=C1COc2ccc(CCC3CCN(C(=O)COc4ccccc4-c4ccc(Cl)nc4)CC3)cc2N1 [Compound 259]
58 | < 1 | O=C(COc1cccnc1-c1ccc(F)cc1O)N1CCC(CCc2ccc3c(c2)OCCO3)CC1 [Compound 337]
59 | < 1 | O=C(COc1ccccc1-c1cc(F)c(F)c(F)c1)N1CCC(CCc2ccc3c(c2)OCO3)CC1 [Compound 200]
60 | < 1 | N#Cc1ccc(OCC(=O)N2CCC(CCc3cccc(OC4CC4)c3)CC2)c(-c2ccc(F)cc2O)c1 [Compound 407]
61 | < 1 | COc1cccc(CCC2CCN(C(=O)COc3ccccc3-c3ccc4[nH]cnc4c3)CC2)c1 [Compound 371]
62 | < 1 | O=C(COc1ccccc1-c1ccccc1O)N1CCC(CCc2ccc(O)cc2)CC1 [Compound 282]
63 | < 1 | O=C(COc1ccc(C(F)(F)F)cc1-c1ccc(F)cc1O)N1CCC(CCc2ccccc2)CC1 [Compound 351]
64 | < 1 | O=C(COc1ccccc1-c1ccc2[nH]cnc2c1)N1CCC(CCc2cccc3ccccc23)CC1 [Compound 402]
65 | < 1 | CC(C)Oc1ccccc1CCC1CCN(C(=O)COc2ccccc2-c2ccc(F)cc2O)CC1 [Compound 431]
66 | < 1 | O=C(COc1ccccc1-c1ccccc1O)N1CCC(CCc2ccc3c(c2)OCCCO3)CC1 [Compound 233]
67 | < 1 | CC(C)Oc1ccc(CCC2CCN(C(=O)COc3ccccc3-c3ccc(C#N)cc3)CC2)cc1 [Compound 430]
68 | < 1 | CCOc1cccc(-c2ccccc2OCC(=O)N2CCC(CCc3ccc4c(c3)OCO4)CC2)c1 [Compound 206]
69 | < 1 | O=C(C1CC1c1ccccc1-c1ccc(F)cc1O)N1CCC(CCc2ccccc2)CC1 (centres unmarked) [Compound 405]
70 | < 1 | O=C(COc1ccccc1-c1ccc(Cl)cc1)N1CCC(CCc2ccc3c(c2)OCO3)CC1 [Compound 190]
71 | < 1 | N#Cc1ccc(OCC(=O)N2CCC(CCc3cccc(OC(F)F)c3)CC2)c(-c2ccc(F)cc2O)c1 [Compound 437]
